The source of these data is article doi:10.1101/2024.08.19.608619, “Discovery of potent SARS-CoV-2 nsp3 macrodomain inhibitors uncovers lack of translation to cellular antiviral response” (bioRxiv, 2024).

Values after ≈ are worked out from the molar mass of the structure shown.

Data set [1] in a line: Permeability Papp (AB) MDR1/MDCKII. The conditions noted are these: In vitro MDR1-MDCKII permeability; for papp_a_to_b_mean: A to B; for perc_recovery_a_to_b_mean: recovery A to B.
A short description of data set [2]: In vitro kinetic solubility. The conditions noted are these: In vitro kinetic solubility, ph 7.4.
Data set [3] can be described thus: Hepatic microsomal stability, HLM. Type of data set: in vitro ADME, human. The conditions noted are these: In vitro human liver microsomal stability; for perc_remaining_no_cofactor: no cofactor.
The nature of the next data set: LogD. The conditions noted are these: pH 7.4; In vitro LogD.
Data set [4] can be described thus: Hepatic microsomal stability, MLM. Type of data set: in vitro ADME.
Where [5] appears, read: In vitro mouse liver microsomal stability.
Setting [6] is: In vitro mouse liver microsomal stability, no cofactor.
Where [7] appears, read: In vitro mouse liver microsomal stability; no cofactor.

In data set [1] (mean), `CNC(=O)c1c[nH]c2ncnc(N[C@H](c3ccc4c(c3)NC(=O)CO4)C(C)C)c12` (racemic) [ASAP-0008637] registered a papp_a_to_b_mean of 4.26 ×10⁻⁶ cm/s and a perc_recovery_a_to_b_mean of 97.4%. In data set [2], this molecule gave a solubility_mean of 28 µM (≈ 11 µg/mL). Also, in data set [3], the clint was 86.0 µL/min/mg, the perc_remaining is given as 23.0%, the t_half amounted to 19.5 min and the perc_remaining_no_cofactor worked out at 98.0%. For the same molecule, the logd in the data set “LogD” is listed as 3.2. In data set [4] (setting [5]), this molecule yielded a clint of 113.0 µL/min/mg, a perc_remaining of 16.0% and a t_half of 14.8 min. In addition, the perc_remaining_no_cofactor in data set [4] (setting [6]) is recorded as 95.0%.

`CNC(=O)c1c[nH]c2ncnc(N[C@H](c3ccc4c(c3)S(=O)(=O)CCC4)C(C)C)c12` (racemic) [ASAP-0008641]: in data set [1] (mean), the papp_a_to_b_mean is 2.23 ×10⁻⁶ cm/s and the perc_recovery_a_to_b_mean is given as 79.1%. This molecule came in with a solubility_mean in data set [2] of 390 µM (≈ 167 µg/mL). Also, in data set [3], the clint came out at 131.0 µL/min/mg, the perc_remaining turned out to be 11.0%, the t_half is on record as 12.8 min and the perc_remaining_no_cofactor is 104.0%. The logd in “LogD” came out at 2.5. For the same molecule, in data set [4] (setting [5]), the clint amounted to 192.0 µL/min/mg, the perc_remaining came out at 3.0% and the t_half worked out at 8.7 min. In data set [4] (setting [6]), the perc_remaining_no_cofactor came out at 92.0%.

As to `CC(C)[C@H](Nc1ncnc2[nH]cc(C(=O)NC3CC3)c12)c1ccc2c(c1)S(=O)(=O)CCC2` (racemic) [ASAP-0008647], in data set [1] (mean), the papp_a_to_b_mean turned out to be 2.46 ×10⁻⁶ cm/s and the perc_recovery_a_to_b_mean is recorded as 73.4%. In data set [2], the solubility_mean was 257 µM (≈ 117 µg/mL). Moreover, in data set [3], the clint stood at 29.0 µL/min/mg, the perc_remaining was found to be 57.0%, the t_half amounted to 57.0 min and the perc_remaining_no_cofactor stood at 90.0%. Besides, the logd in “LogD” came to 3.1. In addition, in data set [4] (setting [5]), the clint was determined as 234.0 µL/min/mg, the perc_remaining is on record as 2.0% and the t_half is reported as 7.2 min. Also, the perc_remaining_no_cofactor in data set [4] (setting [6]) was determined as 101.0%.

In data set [1] (mean), `CC(C)(C)[C@H](Nc1ncnc2[nH]c(-c3cnn(CC(N)=O)c3)cc12)c1ccc2c(n1)OCCO2` (racemic) [ASAP-0008648] returned a papp_a_to_b_mean of 0.822 ×10⁻⁶ cm/s and a perc_recovery_a_to_b_mean of 88.8%. The solubility_mean in data set [2] amounted to 48 µM (≈ 22.2 µg/mL). In data set [3], the clint is 36.0 µL/min/mg, the perc_remaining was found to be 55.0%, the t_half is given as 46.0 min and the perc_remaining_no_cofactor stood at 96.0%. Moreover, the logd in the data set “LogD” turned out to be 2.7. In data set [4] (setting [5]), the clint came to 31.0 µL/min/mg, the perc_remaining is on record as 60.0% and the t_half came to 53.1 min. Further, in data set [4] (setting [6]), the perc_remaining_no_cofactor amounted to 90.0%.

Regarding `COCCNC(=O)c1c[nH]c2ncnc(N[C@H](c3ccc4c(c3)S(=O)(=O)CCC4)C(C)C)c12` (racemic) [ASAP-0008650], in data set [1] (mean), the papp_a_to_b_mean is 1.62 ×10⁻⁶ cm/s and the perc_recovery_a_to_b_mean stood at 73.3%. Moreover, in data set [2], the solubility_mean amounted to 378 µM (≈ 178 µg/mL). Besides, in data set [3], the clint stood at 540.0 µL/min/mg, the perc_remaining turned out to be 0.0%, the t_half was determined as 3.1 min and the perc_remaining_no_cofactor is on record as 106.0%. The logd in “LogD” turned out to be 2.8. Also, in data set [4] (setting [5]), the clint stood at 888.0 µL/min/mg, the perc_remaining was determined as 0.0% and the t_half is on record as 1.9 min. Besides, in data set [4] (setting [6]), the perc_remaining_no_cofactor stood at 99.0%.

As to `CC(C)[C@H](Nc1ncnc2[nH]c(-c3cnn(CC(N)=O)c3)cc12)c1ccc2c(c1)S(=O)(=O)CCC2` (racemic) [ASAP-0008679], in data set [1] (mean), the papp_a_to_b_mean came to 0.32 ×10⁻⁶ cm/s and the perc_recovery_a_to_b_mean came to 79.9%. The same molecule came in with a solubility_mean in data set [2] of 341 µM (≈ 168 µg/mL). In data set [3], the clint stood at 116.0 µL/min/mg, the perc_remaining is listed as 15.0%, the t_half turned out to be 14.4 min and the perc_remaining_no_cofactor was 95.0%. Besides, the logd in “LogD” is 1.9. In data set [4] (setting [5]), this molecule registered a clint of 61.0 µL/min/mg, a perc_remaining of 37.0% and a t_half of 27.4 min. The perc_remaining_no_cofactor in data set [4] (setting [7]) is given as 109.0%.

Consider `CCNC(=O)c1cc2c(N[C@H](c3ccc4c(c3)S(=O)(=O)CCC4)C(C)C)ncnc2[nH]1` (racemic) [ASAP-0008711], for which, in data set [1] (mean), the papp_a_to_b_mean came out at 0.7 ×10⁻⁶ cm/s and the perc_recovery_a_to_b_mean is 87.2%. Moreover, in data set [2], the solubility_mean is 336 µM (≈ 148 µg/mL). Also, in data set [3], the clint turned out to be 108.0 µL/min/mg, the perc_remaining is given as 15.0%, the t_half is given as 15.4 min and the perc_remaining_no_cofactor was 98.0%. This molecule also came in with a logd in “LogD” of 2.8. In data set [4] (setting [5]), this molecule registered a clint of 85.0 µL/min/mg, a perc_remaining of 21.0% and a t_half of 19.5 min. Also, the perc_remaining_no_cofactor in data set [4] (setting [7]) is 95.0%.

In data set [1] (mean), `CC(C)[C@H](Nc1ncnc(N)c1Cl)c1ccc2c(c1)S(=O)(=O)CCC2` (racemic) [ASAP-0010739] returned a papp_a_to_b_mean of 10.1 ×10⁻⁶ cm/s and a perc_recovery_a_to_b_mean of 58.5%. The same molecule showed a solubility_mean in data set [2] of no less than 400 µM. Moreover, in data set [3], the clint stood at 79.0 µL/min/mg, the perc_remaining is listed as 27.0%, the t_half amounted to 21.0 min and the perc_remaining_no_cofactor came to 101.0%. Moreover, the logd in the data set “LogD” is 2.4. Besides, in data set [4] (setting [5]), the clint stood at 204.0 µL/min/mg, the perc_remaining worked out at 4.0% and the t_half is on record as 8.2 min. Besides, the perc_remaining_no_cofactor in data set [4] (setting [6]) amounted to 102.0%.

`CC(C)[C@H](Nc1ncnc2[nH]c(-c3cnn(CC(N)=O)c3)cc12)c1ccc2c(c1)OCCO2` (single isomer, unassigned) [ASAP-0008450]: in data set [1] (mean), the papp_a_to_b_mean amounted to 1.87 ×10⁻⁶ cm/s and the perc_recovery_a_to_b_mean is reported as 90.9%. The molecule also yielded a solubility_mean in data set [2] of 332 µM (≈ 149 µg/mL). Moreover, in data set [3], the clint was found to be 238.0 µL/min/mg, the perc_remaining amounted to 2.0%, the t_half is given as 7.0 min and the perc_remaining_no_cofactor is on record as 90.0%. This molecule also had a logd in the data set “LogD” of 2.9. In data set [4] (setting [5]), this molecule displayed a clint of 42.0 µL/min/mg, a perc_remaining of 49.0% and a t_half of 40.0 min. Moreover, in data set [4] (setting [6]), the perc_remaining_no_cofactor is reported as 98.0%.

In data set [1] (no inhibitor), `CC(C)(C)[C@H](Nc1ncnc2[nH]c(-c3cnn(CC(N)=O)c3)cc12)c1ccc2c(n1)OCCO2` (single isomer, unassigned) [ASAP-0011159] came in with a papp_a_to_b_mean of 1.02 ×10⁻⁶ cm/s and a perc_recovery_a_to_b_mean of 95.8%. Also, the solubility_mean in data set [2] turned out to be 372 µM (≈ 172 µg/mL). In data set [3], the clint is 27.0 µL/min/mg, the perc_remaining stood at 64.0%, the t_half worked out at 60.8 min and the perc_remaining_no_cofactor was 95.0%. The same molecule had a logd in the data set “LogD” of 2.7. In data set [4] (setting [5]), this molecule yielded a clint of 10.0 µL/min/mg, a perc_remaining of 88.0% and a t_half of 162.3 min. Besides, the perc_remaining_no_cofactor in data set [4] (setting [6]) is on record as 116.0%.

In data set [1] (no inhibitor), `CC(C)[C@H](Nc1ncnc2[nH]cc(C(=O)NC3CC3)c12)c1ccc2c(c1)S(=O)(=O)CCC2` (single isomer, unassigned) [ASAP-0011247] gave a papp_a_to_b_mean of 1.27 ×10⁻⁶ cm/s and a perc_recovery_a_to_b_mean of 71.5%. The same molecule yielded a solubility_mean in data set [2] of 19 µM (≈ 8.62 µg/mL). Further, in data set [3], the clint came to 5.0 µL/min/mg, the perc_remaining worked out at 90.0%, the t_half came out at 320.1 min and the perc_remaining_no_cofactor is on record as 112.0%. Further, the logd in “LogD” worked out at 3.0. Besides, in data set [4] (setting [5]), the clint amounted to 42.0 µL/min/mg, the perc_remaining was 50.0% and the t_half is on record as 39.5 min. Moreover, the perc_remaining_no_cofactor in data set [4] (setting [6]) worked out at 102.0%.

In data set [1] (no inhibitor), `CC(C)(C)[C@H](Nc1ncnc2[nH]c(-c3cnn(CC(N)=O)c3)cc12)c1ccc2c(c1)OCCO2` (single isomer, unassigned) [ASAP-0012332] yielded a papp_a_to_b_mean of 1.01 ×10⁻⁶ cm/s and a perc_recovery_a_to_b_mean of 76.5%. The molecule also returned a solubility_mean in data set [2] of 104 µM (≈ 48 µg/mL). Moreover, in data set [3], the clint was 100.0 µL/min/mg, the perc_remaining is 18.0%, the t_half was found to be 16.8 min and the perc_remaining_no_cofactor was 109.0%. For the same molecule, in “LogD”, the logd came to 3.1. Besides, in data set [4] (setting [5]), the clint amounted to 39.0 µL/min/mg, the perc_remaining turned out to be 54.0% and the t_half was found to be 43.1 min. Besides, the perc_remaining_no_cofactor in data set [4] (setting [6]) amounted to 106.0%.

Regarding `CNC(=O)c1cc2c(N[C@H](c3ccc4c(c3)S(=O)(=O)CCC4)C(C)C)ncnc2[nH]1` (single isomer, unassigned) [ASAP-0012340], in data set [1] (no inhibitor), the papp_a_to_b_mean amounted to 0.891 ×10⁻⁶ cm/s and the perc_recovery_a_to_b_mean is on record as 74.2%. In data set [2], this molecule gave a solubility_mean of 374 µM (≈ 160 µg/mL). In data set [3], the clint was found to be 67.0 µL/min/mg, the perc_remaining worked out at 33.0%, the t_half is listed as 25.0 min and the perc_remaining_no_cofactor was found to be 107.0%. In “LogD”, the logd came to 2.3. For the same molecule, in data set [4] (setting [5]), the clint is 47.0 µL/min/mg, the perc_remaining amounted to 42.0% and the t_half is 35.3 min. For the same molecule, the perc_remaining_no_cofactor in data set [4] (setting [6]) is recorded as 106.0%.
